In patent publication US10745382B2 (BRISTOL-MYERS SQUIBB COMPANY, priority 2015, dated 2020) one finds IC50 data, which are given here for 22 compounds.

For this assay, the target named is T1, PD-1/PD-L1 (Homo sapiens, UniProt Q9NZQ7).
T1 construct: made in house; host or cells: HEK293T
T1 sequence (Q9NZQ7 with tags, fused parts or gaps): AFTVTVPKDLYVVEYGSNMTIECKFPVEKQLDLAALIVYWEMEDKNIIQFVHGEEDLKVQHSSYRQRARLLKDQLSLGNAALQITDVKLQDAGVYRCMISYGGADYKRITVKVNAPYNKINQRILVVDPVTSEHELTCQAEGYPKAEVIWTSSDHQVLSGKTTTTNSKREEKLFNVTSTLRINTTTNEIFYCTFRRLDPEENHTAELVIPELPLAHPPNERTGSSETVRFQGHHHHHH
As to the kind of experiment: PD-1/PD-L1 Homogenous Time-Resolved Fluorescence (HTRF) binding assay. To be noted: PD-L1-His 10 nM, PD-1-Ig 20 nM; value given as range class; read-out: Range or IC50. In outline: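 dPBS + 0.1% BSA + 0.05% Tween-20 buffer; Eu-cryptate anti-Ig 1 nM final, APC anti-His 20 nM final; HTRF read. Counter-assays: PD-1-Ig/PD-L2-His 20 & 5 nM, CD80-His/PD-L1-Ig 100 & 10 nM.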
(In TR-FRET formats the signal depends on donor and acceptor labels being close together.)
What is called IC50 is the concentration that inhibits the measured activity by half. With `Cc1c(COc2cc(OCc3cncc(C#N)c3)c(CN3CCCC[C@H]3C(=O)O)cc2Cl)cccc1-c1cccc(OCC2(CN3CC[C@@H](O)C3)CC2)c1C` [Example 2346, (S)-1-(5-chloro-2-((5-cyanopyridin-3-yl)methoxy)-4-((3′-((1-(((R)-3-hydroxypyrrolidin-1-yl)methyl)cyclopropyl)methoxy)-2,2′-dimethyl-[1,1′-biphenyl]-3-yl)methoxy)benzyl)piperidine-2-carboxylic Acid], the IC50 is 0.21 to 10 nM.
As for `Cc1c(COc2cc(OCc3cncc(C#N)c3)c(CNC(CO)CO)cc2Cl)cccc1-c1cccc(NC(=O)CNC2CC2)c1C` [Example 2347, N-(3′-((2-chloro-5-((5-cyanopyridin-3-yl)methoxy)-4-(((1,3-dihydroxypropan-2-yl)amino)methyl)phenoxy)methyl)-2,2′-dimethyl-[1,1′-biphenyl]-3-yl)-2-(cyclopropylamino)acetamide], the IC50 fell in the range of 0.21 to 10 nM.
As for `Cc1c(COc2cc(OCc3cncc(C#N)c3)c(CN[C@@](C)(CO)C(=O)O)cc2Cl)cccc1-c1cccc(OCC2(CN3CC[C@@H](O)C3)CC2)c1C` [Example 2348, (S)-2-((5-chloro-2-((5-cyanopyridin-3-yl)methoxy)-4-((3′-((1-(((R)-3-hydroxypyrrolidin-1-yl)methyl)cyclopropyl)methoxy)-2,2′-dimethyl-[1,1′-biphenyl]-3-yl)methoxy)benzyl)amino)-3-hydroxy-2-methylpropanoic Acid], the IC50 fell in the range of 0.21 to 10 nM.
On to `Cc1cc(C(=O)N2CCOCC2)ccc1-c1cccc(COc2cc(OCc3cncc(C#N)c3)c(CNC(CO)CO)cc2Cl)c1C` [Example 2349, 5-((4-chloro-2-(((1,3-dihydroxypropan-2-yl)amino)methyl)-5-((2,2′-dimethyl-4′-(morpholine-4-carbonyl)-[1,1′-biphenyl]-3-yl)methoxy)phenoxy)methyl)nicotinonitrile], for which the IC50 lay in the range of 10 to 100 nM.
Turning to `Cc1c(COc2cc(OCc3cncc(C#N)c3)c(CNC(CO)CO)cc2Cl)cccc1-c1cccc(Nc2cc(N3CCOCC3)ncn2)c1C` [Example 2350, 5-((4-chloro-2-(((1,3-dihydroxypropan-2-yl)amino)methyl)-5-((2,2′-dimethyl-3′-((6-morpholinopyrimidin-4-yl)amino)-[1,1′-biphenyl]-3-yl)methoxy)phenoxy)methyl)nicotinonitrile], the IC50 lay in the range of 0.21 to 10 nM.
In the case of `Cc1c(COc2cc(OCc3cncc(C#N)c3)c(CNC(CO)CO)cc2Cl)cccc1-c1cccc(Oc2cccc3c2CCNC3=O)c1C` [Example 2354, 5-((4-chloro-2-(((1,3-dihydroxypropan-2-yl)amino)methyl)-5-((2,2′-dimethyl-3′-((1-oxo-1,2,3,4-tetrahydroisoquinolin-5-yl)oxy)-[1,1′-biphenyl]-3-yl)methoxy)phenoxy)methyl)nicotinonitrile], the IC50 was in the range of 10 to 100 nM.
The result for `Cc1c(COc2cc(OCc3cncc(C#N)c3)c(CN3CCCC[C@H]3C(=O)O)cc2Cl)cccc1-c1cccc(OCCCN2CCC(C(=O)O)CC2)c1C` [Example 2364, (S)-1-(4-((3′-(3-(4-carboxypiperidin-1-yl)propoxy)-2,2′-dimethyl-[1,1′-biphenyl]-3-yl)methoxy)-5-chloro-2-((5-cyanopyridin-3-yl)methoxy)benzyl)piperidine-2-carboxylic Acid] reads 0.21 to 10 nM; that for `Cc1c(COc2cc(OCc3cncc(C#N)c3)c(CN3CCCC[C@H]3C(=O)Oc3ccc([N+](=O)[O-])cc3)cc2Cl)cccc1-c1cccc(OCCCN2CC[C@@H](O)C2)c1C` [Example 2370, 4-nitrophenyl (S)-1-(5-chloro-2-((5-cyanopyridin-3-yl)methoxy)-4-((3′-(3-((R)-3-hydroxypyrrolidin-1-yl)propoxy)-2,2′-dimethyl-[1,1′-biphenyl]-3-yl)methoxy)benzyl)piperidine-2-carboxylate], 10 to 100 nM; that for `Cc1c(COc2cc(OCc3cncc(C#N)c3)c(C(=O)NC(C)(CO)CO)cc2Cl)cccc1-c1cccc(OCCCN2CC[C@@H](O)C2)c1C` [Example 2378, (R)-5-chloro-2-((5-cyanopyridin-3-yl)methoxy)-N-(1,3-dihydroxy-2-methylpropan-2-yl)-4-((3′-(3-(3-hydroxypyrrolidin-1-yl)propoxy)-2,2′-dimethyl-[1,1′-biphenyl]-3-yl)methoxy)benzamide], 0.21 to 10 nM.
Turning to `Cc1c(COc2cc(OCc3cncc(C#N)c3)c(C(=O)NCCO)cc2Cl)cccc1-c1cccc(OCCCN2CC[C@@H](O)C2)c1C` [Example 2379, (R)-5-chloro-2-((5-cyanopyridin-3-yl)methoxy)-N-(2-hydroxyethyl)-4-((3′-(3-(3-hydroxypyrrolidin-1-yl)propoxy)-2,2′-dimethyl-[1,1′-biphenyl]-3-yl)methoxy)benzamide], the IC50 is 0.21 to 10 nM.
The result for `Cc1c(COc2cc(OCc3cncc(C#N)c3)c(C(=O)N3CCCC[C@H]3C(=O)O)cc2Cl)cccc1-c1cccc(OCCCN2CC[C@@H](O)C2)c1C` [Example 2380, (S)-1-(5-chloro-2-((5-cyanopyridin-3-yl)methoxy)-4-((3′-(3-((R)-3-hydroxypyrrolidin-1-yl)propoxy)-2,2′-dimethyl-[1,1′-biphenyl]-3-yl)methoxy)benzoyl)piperidine-2-carboxylic Acid] reads 10 to 100 nM.
Regarding `Cc1c(COc2cc(OCc3cncc(C#N)c3)c(C=O)cc2Cl)cccc1-c1cccc(OCCCN2CCC(O)(C(=O)O)CC2)c1C` [Example 2385, 1-(3-((3′-((2-chloro-5-((5-cyanopyridin-3-yl)methoxy)-4-formylphenoxy)methyl)-2,2′-dimethyl-[1,1′-biphenyl]-3-yl)oxy)propyl)-4-hydroxypiperidine-4-carboxylic Acid], the IC50 lay in the range of 0.21 to 10 nM.
On to `Cc1c(OCCCN2CC[C@@H](O)C2)cccc1-c1cccc(COc2cc(OCc3cncc(C#N)c3)c(CN[C@](C)(CO)C(=O)O)cc2Cl)c1` [Example 3015], for which the IC50 was 0.21 to 10 nM.
Next, `Cc1c(OCCCN2CC[C@@H](O)C2)cccc1-c1cccc(COc2cc(OCc3cncc(C#N)c3)c(CN[C@H](CO)C(=O)O)cc2Cl)c1` [Example 3016, (R)-2-((5-chloro-2-((5-cyanopyridin-3-yl)methoxy)-4-((3′-(3-((R)-3-hydroxypyrrolidin-1-yl)propoxy)-2′-methyl-[1,1′-biphenyl]-3-yl)methoxy)benzyl)amino)-3-hydroxypropanoic Acid]: 0.21 to 10 nM; `Cc1c(OCCCN2CC[C@@H](O)C2)cccc1-c1cccc(COc2cc(OCc3cncc(C#N)c3)c(CN[C@](C)(CO)C(=O)O)cc2Cl)c1Cl` [Example 3017, (R)-2-((5-chloro-4-((2-chloro-3′-(3-((R)-3-hydroxypyrrolidin-1-yl)propoxy)-2′-methyl-[1,1′-biphenyl]-3-yl)methoxy)-2-((5-cyanopyridin-3-yl)methoxy)benzyl)amino)-3-hydroxy-2-methylpropanoic Acid]: 0.21 to 10 nM; `Cc1c(COc2cc(OCc3cncc(C#N)c3)c(CN[C@](C)(CO)C(=O)O)cc2Cl)cccc1-c1cccc(OCCCN2[C@@H]3CC[C@H]2C[C@@H](O)C3)c1` [Example 3019, (R)-2-((5-chloro-2-((5-cyanopyridin-3-yl)methoxy)-4-((3′-(3-((1R,3R,5S)-3-hydroxy-8-azabicyclo[3.2.1]octan-8-yl)propoxy)-2-methyl-[1,1′-biphenyl]-3-yl)methoxy)benzyl)amino)-3-hydroxy-2-methylpropanoic Acid]: 0.21 to 10 nM.
With `Cc1ccccc1-c1cccc(COc2cc(OCc3cncc(C#N)c3)c(CN[C@@](C)(CO)C(=O)O)cc2Cl)c1C` [Example 3020, (S)-2-((5-chloro-2-((5-cyanopyridin-3-yl)methoxy)-4-((2,2′-dimethyl-[1,1′-biphenyl]-3-yl)methoxy)benzyl)amino)-3-hydroxy-2-methylpropanoic Acid], the IC50 is 0.21 to 10 nM.
Next, `Cc1ccccc1-c1cccc(COc2cc(OCc3cncc(C#N)c3)c(CN[C@@H](CO)C(=O)O)cc2Cl)c1C` [Example 3021, (S)-2-((5-chloro-2-((5-cyanopyridin-3-yl)methoxy)-4-((2,2′-dimethyl-[1,1′-biphenyl]-3-yl)methoxy)benzyl)amino)-3-hydroxypropanoic Acid]: 0.21 to 10 nM; `Cc1ccccc1-c1cccc(COc2cc(OCc3cncc(C#N)c3)c(CN[C@](C)(CO)C(=O)O)cc2Cl)c1C` [Example 3022, (R)-2-((5-chloro-2-((5-cyanopyridin-3-yl)methoxy)-4-((2,2′-dimethyl-[1,1′-biphenyl]-3-yl)methoxy)benzyl)amino)-3-hydroxy-2-methylpropanoic Acid]: 0.21 to 10 nM.
For `Cc1ccccc1-c1cccc(COc2cc(OCc3cncc(C#N)c3)c(CN3CCCC[C@H]3C(=O)O)cc2Cl)c1C` [Example 3023, (S)-1-(5-chloro-2-((5-cyanopyridin-3-yl)methoxy)-4-((2,2′-dimethyl-[1,1′-biphenyl]-3-yl)methoxy)benzyl)piperidine-2-carboxylic Acid], the IC50 was 0.21 to 10 nM.
For the compound `COc1c(COc2cc(OCc3cncc(C#N)c3)c(CN[C@](C)(CO)C(=O)O)cc2Cl)cccc1-c1cccc(OCCCN2CC[C@@H](O)C2)c1C` [Example 3025, (R)-2-((5-chloro-2-((5-cyanopyridin-3-yl)methoxy)-4-((3′-(3-((R)-3-hydroxypyrrolidin-1-yl)propoxy)-2-methoxy-2′-methyl-[1,1′-biphenyl]-3-yl)methoxy)benzyl)amino)-3-hydroxy-2-methylpropanoic Acid], the IC50 is 0.21 to 10 nM.
With `Cc1cc(COc2cc(OCc3cncc(C#N)c3)c(CN[C@](C)(CO)C(=O)O)cc2Cl)c(C)c(-c2cccc(OCCCN3CC[C@@H](O)C3)c2C)c1` [Example 3026, (R)-2-((5-chloro-2-((5-cyanopyridin-3-yl)methoxy)-4-((3′-(3-((R)-3-hydroxypyrrolidin-1-yl)propoxy)-2,2′,5-trimethyl-[1,1′-biphenyl]-3-yl)methoxy)benzyl)amino)-3-hydroxy-2-methylpropanoic Acid, 2TFA], the IC50 was in the range of 0.21 to 10 nM.
